Test results: patent US20160304547A1, “MACROLIDE COMPOUND” (PULIKE BIOLOGICAL ENGINEERING, INC, priority 2013, published 2016)
Converted amounts (≈) assume the structure as drawn.

What was measured:
[1] = Acute toxicity test of compound Syzx-24, single gastric perfusion; conditions: Balb/c mice, 2000 mg/kg once by gastric perfusion, 6 h after administration
[2] = orally intoxicated mice; cited from earlier work
[3] = test system: Streptococcus pneumoniae CMCC 31203; assay: In vivo antibacterial test, survival of infected BALB/c mice; conditions: BALB/c mice infected i.p. with Streptococcus pneumoniae; for responders at 5 mg/kg: CMCC31203, sc, 168 h, 5 mg per kg s.c. via neck for 3 consecutive days, deaths recorded until the seventh day, read-out: Animal survival rate
[4] = test system: Pasteurella multocida CVCC399; assay: MIC by mini broth dilution technique (in vitro susceptibility); assay type: cell-based; conditions: Pasteurella multocida CVCC399; broth dilution; read-out: MIC values Pasteurella multocida CVCC399
Protocol: (§1) in vitro tests of susceptibility of the compounds according to the present disclosure against bacterial strains commonly used in laboratories. In accordance with the Performance Standards for Antimicrobial Disk Susceptibility Tests: Approved Standard published by the US National Committee for Clinical Laboratory Standards, the antibactetial activities of compounds prepared according to examples 5 to 187 were tested. The MICs (minimum inhibitory concentration) of the medicaments prepared according to the examples on the following bacterial strains were measured through mini broth dilution technique. Staphylococcus aureus CVCC26003, Streptococcus equines CVCC556. Actinobacillus pleuropneumoniae CVCC262, Haemophilus parasuis, and Pasteurella multocida CVCC399, which were purchased from the Control Institute of Veterinary Bioproducts and Pharmaceuticals, China. Liquid culture medium: […] Solid culture medium: […] The strains were taken out of a regrigerator at −20° C. to be revived, and were spreaded by streaking on the solid culture medium with an inoculating loop. The inoculated culture medium was cultured at 35° C. in a constant temperature incubator for 20 h. Monoclonal antibodies were selected from a well-grown culture plate and streaked on the solid culture medium. The inoculated culture medium was cultured at 35° C. in the constant temperature incubator for 20 h. […] A 96-well plate was used, and 100 μl of DMSO was added into each of wells 2 to 11, and 200 μl of ready-prepared medicament solution was added into the 1st well, 100 μl of the medicament solution was extracted from the 1st well and added into the 2nd well. Double dilution was performed until the 11th well, thereby forming 11 gradients. In this case, compound of parent plate was prepared. 3 μl of double diluted medicament solution was extracted with a 12-channel pipettor and added into wells 1-11 of a new disposable 96-well culture plate. The 12th well thereof is a controll well. For each medicament, there are two adjacent rows which are parallel. The transferred compound plate was reserved for later use. […] The dilution ratio was recorded, and the bacterial liquid for the tests was diluted according to the recorded dilution ratio. Subsequently, the bacterial suspension and the liquid culture medium were diluted in the proportion of 1:200. The diluted solution was reserved for later use.

[5] = test system: Streptococcus equines CVCC556; assay: as above; assay type: cell-based; conditions: Streptococcus equines CVCC556; broth dilution; read-out: MIC values Streptococcus equines CVCC556
Protocol: as §1

Haemophilus parasuis = assay: as above; assay type: cell-based; conditions: Glaesserella parasuis; Haemophilus parasuis; broth dilution; read-out: MIC values Haemophilus parasuis
Protocol: as §1

[6] = test system: Actinobacillus pleuropneumoniae CVCC262; assay: as above; assay type: cell-based; conditions: Actinobacillus pleuropneumoniae CVCC262; broth dilution; read-out: MIC values Actinobacillus pleuropneumoniae CVCC262
Protocol: as §1

[7] = test system: Staphylococcus aureus CVCC26003; assay: as above; assay type: cell-based; conditions: Staphylococcus aureus CVCC26003; broth dilution; read-out: MIC values Staphylococcus aureus CVCC26003
Protocol: in vitro tests of susceptibility of the compounds according to the present disclosure against bacterial strains commonly used in laboratories. In accordance with the Performance Standards for Antimicrobial Disk Susceptibility Tests: Approved Standard published by the US National Committee for Clinical Laboratory Standards, the antibactetial activities of compounds prepared according to examples 5 to 187 were tested. The MICs (minimum inhibitory concentration) of the medicaments prepared according to the examples on the following bacterial strains were measured through mini broth dilution technique. Staphylococcus aureus CVCC26003, Streptococcus equines CVCC556. Actinobacillus pleuropneumoniae CVCC262, Haemophilus parasuis, and Pasteurella multocida CVCC399, which were purchased from the Control Institute of Veterinary Bioproducts and Pharmaceuticals, China. Liquid culture medium: CAMHB. […] Solid culture medium: NINA prepared according to the specification of the final product. The strains were taken out of a regrigerator at −20° C. to be revived, and were spreaded by streaking on the solid culture medium with an inoculating loop. The inoculated culture medium was cultured at 35° C. in a constant temperature incubator for 20 h. Monoclonal antibodies were selected from a well-grown culture plate and streaked on the solid culture medium. The inoculated culture medium was cultured at 35° C. in the constant temperature incubator for 20 h. […] A 96-well plate was used, and 100 μl of DMSO was added into each of wells 2 to 11, and 200 μl of ready-prepared medicament solution was added into the 1st well, 100 μl of the medicament solution was extracted from the 1st well and added into the 2nd well. Double dilution was performed until the 11th well, thereby forming 11 gradients. In this case, compound of parent plate was prepared. 3 μl of double diluted medicament solution was extracted with a 12-channel pipettor and added into wells 1-11 of a new disposable 96-well culture plate. The 12th well thereof is a controll well. For each medicament, there are two adjacent rows which are parallel. The transferred compound plate was reserved for later use. […] The dilution ratio was recorded, and the bacterial liquid for the tests was diluted according to the recorded dilution ratio. Subsequently, the bacterial suspension and the liquid culture medium were diluted in the proportion of 1:200. The diluted solution was reserved for later use.

For `CC[C@H]1OC(=O)[C@H](C)[C@@H](O[C@H]2C[C@@](C)(OC)[C@](O)(CN(C)C)[C@H](C)O2)[C@H](C)[C@@H](O[C@@H]2O[C@H](C)C[C@H](N(C)C)[C@H]2O)[C@](C)(O)C[C@@H](C)NC[C@H](C)[C@@H](O)[C@]1(C)O` [syzx-24], the Death rate [1] was 0% and the “Number of dead animals/total number of animals” value [1] was 0/4.
For `CCCNC[C@]1(O)[C@H](C)O[C@@H](O[C@H]2[C@H](C)[C@@H](O[C@@H]3O[C@H](C)C[C@H](N(C)C)[C@H]3O)[C@](C)(O)C[C@@H](C)CN[C@H](C)[C@@H](O)[C@](C)(O)[C@@H](CC)OC(=O)[C@@H]2C)C[C@@]1(C)OC` [Tulathromycin, reference compound], the Death rate [1] is listed as 75%, the minimum lethal dose [2] is listed as “higher than 2000 mg/kg.d-1” and the Animal survival rate ([3]; Tulathromycin control group, 10 mg per kg of body weight after infection, until the seventh day) is listed as 70% (7/10).
In the case of `CC[C@@H]1OC(=O)[C@H](C)[C@H](OC2C[C@@](C)(OC)[C@](O)(CNCC(C)C)[C@H](C)O2)[C@@H](C)[C@@H](O[C@@H]2O[C@H](C)C[C@H](N(C)C)[C@H]2O)[C@](C)(O)C[C@@H](C)NC[C@@H](C)[C@H](O)[C@]1(C)O` (stereo partly drawn) [syzx-12, (2R,3S,4R,5S,8R,10R,11R,12S,13S,14R)-13-[(2,6-dideoxy-3-C-methyl-3-O-methyl-4-C-[(isobutylamino)methyl]-α-L-ribopyranosyl)oxy]-2-ethyl-3,4,10-trihydroxy-3,5,8,10,12,14-hexamethyl-11-[[3,4,6-trideoxy-3-(dimethylamino)-β-D-xylo-hexopyranosy]oxy]-1-oxa-7-azacyclopentadecan-15-one], the MIC [4] is reported as ≤ 0.25 µg/mL, the MIC [5] is reported as ≤ 0.25 µg/mL and the MIC (Haemophilus parasuis) is reported as ≤ 0.25 µg/mL. The MIC [6] was ≤ 0.25 µg/mL, the MIC [7] was ≤ 0.25 µg/mL and the responders at 5 mg/kg [3] was 70%.
For `CC[C@@H]1OC(=O)[C@H](C)[C@H](OC2C[C@@](C)(OC)[C@](O)(CN3CCOCC3)[C@H](C)O2)[C@@H](C)[C@@H](O[C@@H]2O[C@H](C)C[C@H](N(C)C)[C@H]2O)[C@](C)(O)C[C@@H](C)NC[C@@H](C)[C@H](O)[C@]1(C)O` (stereo partly drawn) [syzx-5, (2R,3S,4R,5S,8R,10R,11R,12S,13S,14R)-13-[(2,6-dideoxy-3-C-methyl-3-O-methyl-4-C-[(morpholinyl)methyl]-α-L-ribopyranosyl)oxy]-2-ethyl-3,4,10-trihydroxy-3,5,8,10,12,14-hexamethyl-11-[[3,4,6-trideoxy-3-(dimethylamino)-β-D-xylo-hexopyranosy]oxy]-1-oxa-7-azacyclopentadecan-15-one], the MIC [4] was 0.5 µg/mL (≈ 0.599 µM), the MIC [5] was ≤ 0.25 µg/mL and the MIC (Haemophilus parasuis) was 0.5 µg/mL (≈ 0.599 µM). For the same molecule, the MIC [6] was 16 µg/mL (≈ 19.2 µM), the MIC [7] was 0.5 µg/mL (≈ 0.599 µM) and the responders at 5 mg/kg [3] was 70%.
